Measurements reported in US7368431B2, “Polypeptide, the conjugate thereof with doxorubicine and a pharmaceutical composition based thereon” (Zakrytoe Aktsionernoe Obschestvo “Russkie Biotechnologll”, priority 2001, dated 2008).
Peptide text beside a SMILES is read from it. * marks the point of attachment. X1 = COc1cccc2c1C(=O)c1c(O)c3c(c(O)c1C2=O)C[C@@](O)(C(=O)CO)C[C@@H]3O[C@H]1C[C@H](N=CCCCC=N[C@@H](CCSC)C(=O)*)[C@H](O)[C@H](C)O1

Tests used:
[1] = test system: human breast carcinoma cell line MCF-7^wt; assay: Cytotoxicity, MTT cell survival; format: cell-based; conditions: 72 hours
Procedure: (§1) Efficacy of the conjugate was studied on the following cell lines: human breast carcinoma cell line MCF-7^wt and resistant human breast carcinoma cell line MCF-7^AdrR; human ovary carcinoma cell line SKOV3 and resistant human ovary carcinoma cell line SKVLB; and murine melanoma cell line B16.
(§2) Study protocol was common for all test runs. The cells cultivated in plastic flasks (COSTAR) in the RPMI medium (SIGMA), which contained 10% of fetal bovine serum (SIGMA), 100 U/ml of penicillin and 100 μg/ml of streptomycin, in a wet environment of 5% CO2 at 37° C., were inoculated in 96-well plates (Costar), 10000 in each well, and studied drugs were then added at different concentrations. After that, the cells were incubated for 72 hours. Two-four hours prior to the end of the incubation period, 50 μl (1 mg/ml) of the MTT solution (3-[4,5-dimethylthiazole-2yl]-2,5-diphenyltetrazole bromide (SIGMA) in the culture medium were added in each well. After the development of coloration, the medium was removed, formazan crystals were dissolved in 150 μl of dimethyl sulfoxide, and the absorbance was measured by spectrophotometry at 540 nm. Survival rates of the cells exposed to free and conjugated DR were determined in percent relative to the survival rate of controls taken as 100%.

[2] = test system: human ovary carcinoma cell line SKOV3; assay: Cytotoxicity, MTT cell survival; format: cell-based
Procedure: as §1, §2

[3] = test system: murine melanoma cell line B16; assay: Cytotoxicity, MTT cell survival; format: cell-based; conditions: B16, 72 hours
Procedure: as §1, §2

[4] = test system: resistant human breast carcinoma cell line MCF-7^AdrR; assay: Cytotoxicity, MTT cell survival; format: cell-based; conditions: 72 hours
Procedure: as §1, §2

[5] = test system: resistant human ovary carcinoma cell line SKVLB; assay: Cytotoxicity, MTT cell survival; format: cell-based; conditions: SKVLB^AdrR, 72 hours
Procedure: as §1, §2

[6] = test system: subcutaneously implanted line B16 cancer cells; assay: Murine implanted tumor model, intravenous administration; format: in vivo; conditions: mice, s.c. B16, i.v. 0.2 mg/kg of doxorubicin once every four days; for Increase in ADL, %: three injections, relative to controls
Procedure: The medicines were administered at a dose of 0.2 mg/kg of doxorubicin once every four days, three injections in total, starting from day 3 after the cancer implantation.

[7] = test system: line NIH 3T3 murine fibroblast cells; assay: Proliferative activity, 3H-thymidine incorporation; format: cell-based; conditions: NIH 3T3 fibroblasts, 0.1-1000 ng/ml, compared with known polypeptide I (EGF fragment), FIG. 1
Procedure: Proliferative activity of the polypeptide was tested on line NIH 3T3 murine fibroplat cells. The rate of DNA biosynthesis was judged from the amount of ^3H-timidine incorporated in the […] cell fraction. Line NIH 3T3 murine fibroblast cells were cultivated in plastic flasks in the RPM1 medium (SIGMA), which contained 10% of fetal bovine serum (SIGMA), 100 U/mb of penicillin and 100 μg/ml of streptomycin, in a wet environment of 5% CO2 at 37° C. Proliferation of synchronized line NIH 3T3 fibroblasts was induced by adding to the cellular suspension the proposed polypeptide at a different concentration (0.1-1000 ng/ml). The fibroblasts were cultivated in 96-well plates in the complete medium, 200-800 cells in each well containing 200 μl of the medium. ^3H-thymidine (1 μCi/well, […]) was added 2 hours prior to the end of the incubation period. Radioactivity was measured by a scintillation counter (RACKBETA, LKB) with the use of a toluene-based scintillation fluid ZhS-8. The rate of DNA biosynthesis was expressed as the stimulation index (stimulated-to-control cell ratio) calculated by the formula: I=N/No×100%, where I is the stimulation index, N is the number of EGF-stimulated cells, and No is the number of control cells. […]

[8] = Homo sapiens, Breast carcinoma cell

| Compound | IC50 [1, 8] | IC50 ([2]; Homo sapiens, SK-OV-3, SKOV3, 72 hours) | IC50 ([3]; Mus musculus) | IC50 [4, 8] | IC50 ([5]; Homo sapiens) | ADL (average duration of life) ([6]; three injections from day 3) | Increase in ADL, % [6] | IC50 [1] | IC50 ([2]; SKOV3, 72 hours) | IC50 [3] | IC50 [4] | IC50 [5] | onset of tumors and their growth ([6]; three injections from day 3, compared with free DR) | Increase in ADL, % ([6]; listed as Conjugate, 0.2 mg/kg) | Increase in ADL, % ([6]; listed as conjugate, 0.2 mg/kg) | proliferative effect (incorporated 3H-thymidine, stimulation index) [7] |
| --- | --- | --- | --- | --- | --- | --- | --- | --- | --- | --- | --- | --- | --- | --- | --- | --- |
| COc1cccc2c1C(=O)c1c(O)c3c(c(O)c1C2=O)C[C@@](O)(C(=O)CO)C[C@@H]3O[C@H]1C[C@H](N)[C@H](O)[C@H](C)O1 [DR, doxorubicin] | 0.0586 µM | 0.209 µM | 0.035 µM | 3.7 µM | 2.01 µM | 23.6 ± 4.0 days | −24.8% | – | – | – | – | – | – | – | – | – |
| CC[C@H](C)[C@H](NC(=O)[C@H](Cc1ccc(O)cc1)NC(=O)[C@H](CCSC)N=CCCCC=N[C@H]1C[C@H](O[C@H]2C[C@](O)(C(=O)CO)Cc3c(O)c4c(c(O)c32)C(=O)c2c(OC)cccc2C4=O)O[C@@H](C)[C@H]1O)C(=O)N[C@@H](CCC(=O)O)C(=O)N[C@@H](C)C(=O)N[C@@H](CC(C)C)C(=O)N[C@@H](CC(=O)O)C(=O)N[C@@H](CO)C(=O)N[C@@H](Cc1ccc(O)cc1)C(=O)N[C@@H](C)C(=O)N[C@@H](CS)C(=O)O [Polypeptide-DR conjugate] (X1-YIEALDSYAC-OH) | – | – | – | – | – | 46.6 ± 5.7 days | – | 0.0013 µM | 0.022 µM | 0.0011 µM | 0.15 µM | 0.07 µM | considerable delay in the onset of tumors and slowed their growth | 48.5% | 46% | – |
| NH2-Met-Tyr-Ile-Glu-Ala-Leu-Asp-Ser-Tyr-Ala-Cys-COOH (H-MYIEALDSYAC-OH) [proposed polypeptide, synthetic polypeptide H2N-…-COOH similar to EGF fragment 21 to 31, Lys replaced with Ser] | – | – | – | – | – | – | – | – | – | – | – | – | – | – | – | more pronounced dose-dependent proliferative effect |
